Laboratory results published in the NIST ThermoML archive (doi:10.1021/je500762n).
Numbers after ± are expanded uncertainties.

Assays:
[1] = Molar enthalpy of transition or fusion; details: Crystal; DSC
[2] = Crystal; DTA

With CCCCCC[n+]1csc2ccccc21.F[P-](F)(F)(F)(F)F [N-hexylbenzothiazolium hexafluorophosphate] the “Molar enthalpy of transition or fusion” value [1] was 5.62 ± 0.167 kcal/mol and the Normal melting temperature [2] was 85.64 ± 0.5 °C.

In the case of CCCCCCCC[n+]1csc2ccccc21.F[P-](F)(F)(F)(F)F [N-octylbenzothiazolium hexafluorophosphate], the “Molar enthalpy of transition or fusion” value [1] is reported as 3.59 ± 0.12 kcal/mol and the Normal melting temperature [2] is reported as 61.07 ± 0.5 °C.

In the case of CCCCCCC[n+]1csc2ccccc21.F[P-](F)(F)(F)(F)F [3-heptylbenzo[d]thiazol-3-ium hexafluorophosphate], the “Molar enthalpy of transition or fusion” value [1] is reported as 4.8 ± 0.167 kcal/mol and the Normal melting temperature [2] is reported as 86.2 ± 0.5 °C.

With CCCCC[n+]1csc2ccccc21.F[P-](F)(F)(F)(F)F [N-pentylbenzothiazolium hexafluorophosphate] the “Molar enthalpy of transition or fusion” value [1] was 7.22 ± 0.215 kcal/mol and the Normal melting temperature [2] was 139.11 ± 0.5 °C.
